Measurements published in patent US12091676B2, “Method for preparing non-human primate somatic cell cloned animal” (CENTER FOR EXCELLENCE IN BRAIN SCIENCE AND INTELLIGENCE …, priority 2018, dated 2024).

System: cynomolgus monkey somatic cell nuclear transfer embryos
Experiment: In vitro development of cynomolgus monkey somatic cell nuclear transfer embryos to blastocyst
Assay type: cell-based, cynomolgus monkey (Macaca fascicularis)
Source text: Oocyte denucleation: 15-20 MII stage oocytes were transferred to a glass-bottomed and oil-sealed TH3 working drop containing […], and the position of the oocyte nucleus was observed under the inverted microscope assisted by the spindle imaging system, and the oocyte was fixed with an egg-holding needle and the oocyte nucleus was located at 3 o'clock direction. The Piezo Micromainpulator System was used to drive a flat needle with a diameter of 10 microns to break the zona pellucida, and the oocyte nucleus was removed. After the whole group of oocytes were enucleated, the enucleated oocytes were transferred to HECM-9 medium.
Injection of fibroblasts into enucleated oocytes: 15-20 enucleated oocytes were transferred to an oil-sealed TH3 working drop containing […], and the oocytes were fixed with an egg holding needle, and the polar body was placed at 12 o'clock or 6 o'clock direction. The laser zona pellucida system was used for breaking the zona pellucida to form a narrow slit. An oblique needle with a diameter of 15-18 microns was used for aspirating fibroblasts and transferring the cells to HVJ-E for 10 seconds, and then the cells were removed and injected into the perivitelline space of the enucleated egg cell through the zona pellucida slit, and the somatic cell would fuse into the oocyte in about 10 minutes.
Injection of cumulus cells into enucleated oocytes: 15-20 enucleated oocytes were transferred to an oil-sealed TH3 working drop containing […], and the oocytes were fixed with an egg holding needle, and the polar body was placed at 12 o'clock or at 6 o'clock direction. The laser zona pellucida system was used for breaking the zona pellucida to form a narrow slit. A 10-micron oblique needle was used for aspirating the cumulus cells and transferring the cells to HVJ-E to soak for 10 seconds, then the cells were removed and injected into the 9 o'clock position of the enucleated egg cell through the zona pellucida slit, and the somatic cell would fuse into the oocyte in about 10 minutes.
In vitro activation of nuclear transfer embryos: Embryo activation can be performed 1-1.5 hours after the fusion of somatic cells and enucleated oocytes. The embryos were transferred to TH3 containing 5 μM ionomycin for 5 minutes, then transferred to HECM-9 medium containing 2 mM 6-DMAP and 10 nM TSA for 5 hours, then transferred to HECM-9 containing 10 nM TSA and cultured for 5 hours, and finally transferred to HECM-9 medium for culture.
Kdm4d mRNA injection: 5-6 hours after embryo activation, the activated embryo was transferred to an oil-sealed TH3 working drop containing 5 μg/ml CB, the embryo was fixed with an egg-holding needle, and the Piezo Micromainpulator System was used to drive a flat injection needle with a diameter of 2-3 microns to break the zona pellucida and penetrate deep into the embryo. The embryo cell membrane was broken and 1000 ng/μl of Kdm4d mRNA was injected into the embryo, and each embryo was injected about 10 pl. After the injection, the embryos were transferred to HECM-9 medium and cultured at 37° C. and 5% CO2.
Embryo culture: cloned embryos were cultured in HECM-9 medium, and then transferred to HECM-9 medium containing 5% FBS at the 8-cell stage, and the medium was changed every other day until blastocysts were appeared on day 7-8.

CC(/C=C/C(=O)NO)=C\[C@@H](C)C(=O)c1ccc(N(C)C)cc1 [TSA, Trichostatin, reference compound]
embryos developed to the blastocyst stage (blastocysts/embryos) (SCNT embryos cultured in vitro, TSA 10 nM, 10 h during and after activation): 5/31
blastocysts that had inner cell masses (out of 5 blastocysts, TSA 10 nM, 10 h): 2

Kdm5b: H3K4me3 demethylase injected into monkey somatic cell nuclear transfer embryos
effect on improving the efficiency of monkey somatic cell nuclear transfer embryos: no significant effect
blastocyst rate (20 injected embryos): 10%
blastocysts obtained (number) (of 20 injected monkey somatic cell nuclear transfer embryos): 2
